Source: US20250114338A1, “TETRAHYDRO-PYRIDO[3,4-b]INDOLE ESTROGEN RECEPTOR MODULATORS AND USES THEREOF” (Genentech, Inc., priority 2014, published 2025)

tested on: ER-alpha MCF7; experiment: ER-alpha MCF7 HCS EC50; stated as measured by in vitro cell proliferation assays of Examples 902 and 903; format: cell-based; settings: Homo sapiens, MCF7, MCF7 cells; Table 2
Summary of the method: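 MCF7 cells seeded 1000-2000 cells/well for 16 h, then treated with nine-point 1:2 DMSO dilution series in quadruplicate at 37 °C, 5% CO2 for 4 days. Viable cells quantified by CellTiter-Glo ATP luminescence; EC50 calculated. Controls: fulvestrant at final 100 nM, DMSO 0.2% v/v.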

Compound	EC50 [nM]
C[C@@H]1Cc2c([nH]c3ccccc23)[C@@H](c2c(F)cc(OC3CN(C/C=C/F)C3)cc2F)N1CC(C)(C)F [Example 308, (1R,3R)-1-[2,6-difluoro-4-[1-[(E)-3-fluoroallyl]azetidin-3-yl]oxy-phenyl]-2-(2-fluoro-2-methyl-propyl)-3-methyl-1,3,4,9-tetrahydropyrido[3,4-b]indole]	0.127
C[C@@H]1Cc2c([nH]c3ccccc23)[C@@H](c2ccc(NC3CN(CCCF)C3)cc2)N1S(C)(=O)=O [Example 310, 1-(3-fluoropropyl)-N-[4-[(1R,3R)-3-methyl-2-methylsulfonyl-1,3,4,9-tetrahydropyrido[3,4-b]indol-1-yl]phenyl]azetidin-3-amine]	0.708
C=CS(=O)(=O)N1[C@H](c2ccc(OCCN3CC(CF)C3)cc2)c2[nH]c3ccccc3c2C[C@H]1C [Example 312, (1R,3R)-1-[4-[2-[3-(fluoromethyl)azetidin-1-yl]ethoxy]phenyl]-3-methyl-2-vinylsulfonyl-1,3,4,9-tetrahydropyrido[3,4-b]indole]	2
CNS(=O)(=O)N1[C@H](c2ccc(OCCN3CC(CF)C3)cc2)c2[nH]c3ccccc3c2C[C@H]1C [Example 313, (1R,3R)-1-[4-[2-[3-(fluoromethyl)azetidin-1-yl]ethoxy]phenyl]-N,3-dimethyl-1,3,4,9-tetrahydropyrido[3,4-b]indole-2-sulfonamide]	1
C[C@@H]1Cc2c([nH]c3ccccc23)[C@H](c2ccc(NC3CN(CCCF)C3)cc2)N1S(C)(=O)=O [Example 314, 1-(3-fluoropropyl)-N-[4-[(1S,3R)-3-methyl-2-methylsulfonyl-1,3,4,9-tetrahydropyrido[3,4-b]indol-1-yl]phenyl]azetidin-3-amine]	9
C[C@@H]1Cc2c([nH]c3ccccc23)[C@@H](c2c(F)cc(OC3CN(CC=C(F)F)C3)cc2F)N1CC(C)(C)F [Example 317, (1R,3R)-1-[4-[1-(3,3-difluoroallyl)azetidin-3-yl]oxy-2,6-difluoro-phenyl]-2-(2-fluoro-2-methyl-propyl)-3-methyl-1,3,4,9-tetrahydropyrido[3,4-b]indole]	0.181
C[C@@H]1Cc2c([nH]c3ccccc23)[C@@H](c2c(F)cc(OCCN3CC(CF)C3)cc2F)N1C[C@@H](CO)C(F)(F)F [Example 318, (S)-2-(((1R,3R)-1-(2,6-difluoro-4-(2-(3-(fluoromethyl)azetidin-1-yl)ethoxy)phenyl)-3-methyl-1,3,4,9-tetrahydro-2H-pyrido[3,4-b]indol-2-yl)methyl)-3,3,3-trifluoropropan-1-ol]	1

Continued, values first:

EC50 [nM]	Compound
6	CC(CN1[C@H](c2c(F)cc(OC3CN(CCCF)C3)cc2F)c2[nH]c3ccccc3c2C[C@H]1C)S(C)(=O)=O (stereo partly drawn) [Example 309, (1R,3R)-1-(2,6-difluoro-4-((1-(3-fluoropropyl)azetidin-3-yl)oxy)phenyl)-3-methyl-2-(2-(methylsulfonyl)propyl)-2,3,4,9-tetrahydro-1H-pyrido[3,4-b]indole]
0.248	C[C@@H]1Cc2c([nH]c3ccccc23)[C@@H](c2c(F)cc(NC3CN(CCCF)C3)cc2F)N1S(C)(=O)=O [Example 311, N-[3,5-difluoro-4-[(1R,3R)-3-methyl-2-methylsulfonyl-1,3,4,9-tetrahydropyrido[3,4-b]indol-1-yl]phenyl]-1-(3-fluoropropyl)azetidin-3-amine]
2	C[C@@H]1Cc2c([nH]c3ccccc23)[C@H](c2c(F)cc(NC3CN(CCCF)C3)cc2F)N1S(C)(=O)=O [Example 315, N-[3,5-difluoro-4-[(1S,3R)-3-methyl-2-methylsulfonyl-1,3,4,9-tetrahydropyrido[3,4-b]indol-1-yl]phenyl]-1-(3-fluoropropyl)azetidin-3-amine]
0.0724	C[C@@H]1Cc2c([nH]c3ccccc23)[C@@H](c2c(F)cc(OC3CN(CCCF)C3)cc2F)N1CC(C)(C)C#N [Example 316, 3-[(1R,3R)-1-[2,6-difluoro-4-[1-(3-fluoropropyl)azetidin-3-yl]oxy-phenyl]-3-methyl-1,3,4,9-tetrahydropyrido[3,4-b]indol-2-yl]-2,2-dimethyl-propanenitrile]
